Measured values taken from ChEMBL document CHEMBL1141915, “1,3-Dioxo-4-methyl-2,3-dihydro-1H-pyrrolo[3,4-c]quinolines as potent caspase-3 inhibitors” (Bioorg Med Chem Lett, 2005).

Molecular target: T1, Caspase-3 (Homo sapiens, UniProt P42574)
T1 sequence (P42574 whole entry): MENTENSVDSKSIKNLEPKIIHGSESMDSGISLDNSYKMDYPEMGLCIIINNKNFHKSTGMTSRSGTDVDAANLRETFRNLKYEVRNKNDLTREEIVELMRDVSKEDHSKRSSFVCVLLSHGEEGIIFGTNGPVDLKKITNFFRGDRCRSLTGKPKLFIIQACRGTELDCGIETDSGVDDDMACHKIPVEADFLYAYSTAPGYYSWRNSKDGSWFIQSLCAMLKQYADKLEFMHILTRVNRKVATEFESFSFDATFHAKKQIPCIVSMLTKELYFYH
Test: In vitro inhibitory concentration measured against caspase-3

IC50 [µM] | SMILES
6.36 | Cc1nc2ccccc2c2c1C(=O)N(C)C2=O
> 100 | Cc1nc2ccccc2c2c1C(=O)NC2=O
